“Also recorded” adds a separate entry of the source.
Legend:
[1] = tested on: CMS1 (HCT116, RKO, LoVo, SNU-C2A, LIM2405, WiDr) and CMS2 (CaCo2, HT55, CL14, SW403, GP2d, HCA24) cell lines; assay: Drug response curves (viability, AUC) in a panel of CMS1 and CMS2 cell lines; type: cell-based; details: 72 h; 6 CMS1 and 6 CMS2 cell lines
From the text: The present invention will now be further described in the following examples with reference to the accompanying figures and sequences, nevertheless, without being limited thereto. For the purposes of the present invention, all references as cited herein are incorporated by reference in their entireties. In the Figures: • Figure 1: Classification of colorectal cancer cell lines into consensus molecular subtypes (CMS). • (A) Workflow of data collection and subtype classification. Expression data of CRC cell lines were retrieved from six publicly available datasets. For each dataset, the CMS of every cancer cell line was separately identified using the R package 'CMSclassifier'. The CMS that was determined by the majority of datasets was then considered as the consensus. Finally, genomic data from CCLE and COSMIC were used to analyse CMS specific distributions of mutations and copy number alterations. • (B) Distribution of CRC cell lines to different CMS. […] Drug response data from a large screen performed by Iorio et al. was combined with the CMS classification of CRC cell lines to identify differential drug effects between CMS1 and CMS2 cell lines. […] Cell lines were treated with increasing drug concentrations for 72 h. […] The CMS1 cell lines RKO and HCT116 and the CMS2 cell lines HT55 and CaCo2 were treated with increasing concentrations of YM155. Induction of apoptosis was measured by FACS after staining with APC Annexin V and 7-AAD. […] Data are shown as mean value ± s.e.m. of 3-4 independent replicates. Cell lysates were additionally analyzed by PARP and CASP8 immunoblot. β-actin serves as a loading control. […] CMS1 and 2 cell lines were treated with increasing concentrations of the Bcl2 inhibitor navitoclax for 72 h. […] The CMS1 cells lines RKO and HCT116 were treated with different concentrations of YM155 for 48 h and the expression of survivin was measured by qPCR. […] (E) HCT116, RKO, HT55 and CaCo2 cells were treated with 10 nM of YM155 for 24 h, after which global expression was determined by microarray analysis. […]

[2] = tested on: CMS1 and CMS2 CRC cell lines; assay: Analysis of public drug screen data (Iorio et al.): viability effect (AUC) in CMS-classified CRC cell lines; type: cell-based; details: 8 CMS1 and 16 CMS2 CRC cell lines, 256 drugs, 2016
From the text: The present invention will now be further described in the following examples with reference to the accompanying figures and sequences, nevertheless, without being limited thereto. For the purposes of the present invention, all references as cited herein are incorporated by reference in their entireties. In the Figures: • Figure 1: Classification of colorectal cancer cell lines into consensus molecular subtypes (CMS). • (A) Workflow of data collection and subtype classification. Expression data of CRC cell lines were retrieved from six publicly available datasets. For each dataset, the CMS of every cancer cell line was separately identified using the R package 'CMSclassifier'. The CMS that was determined by the majority of datasets was then considered as the consensus. […] Induction of apoptosis was measured by FACS after staining with APC Annexin V and 7-AAD. […] Cell lysates were additionally analyzed by PARP and CASP8 immunoblot. β-actin serves as a loading control. […] The CMS1 cells lines RKO and HCT116 were treated with different concentrations of YM155 for 48 h and the expression of survivin was measured by qPCR. […] (E) HCT116, RKO, HT55 and CaCo2 cells were treated with 10 nM of YM155 for 24 h, after which global expression was determined by microarray analysis. […]

[3] = tested on: survivin; assay: Survivin transcript (qPCR) and protein levels after treatment; type: cell-based; details: four CRC cell lines
From the text: (§1) The present invention will now be further described in the following examples with reference to the accompanying figures and sequences, nevertheless, without being limited thereto. For the purposes of the present invention, all references as cited herein are incorporated by reference in their entireties. In the Figures: • Figure 1: Classification of colorectal cancer cell lines into consensus molecular subtypes (CMS). • (A) Workflow of data collection and subtype classification. Expression data of CRC cell lines were retrieved from six publicly available datasets. For each dataset, the CMS of every cancer cell line was separately identified using the R package 'CMSclassifier'. The CMS that was determined by the majority of datasets was then considered as the consensus. […] Heatmap showing the viability effect of YM155 on individual CMS1 and CMS2 cell lines within the screen (blue indicates a low viability as measured by the AUC). • (C-D) Validation of YM155 as a selective drug in CMS1 colorectal cancer. […] Induction of apoptosis was measured by FACS after staining with APC Annexin V and 7-AAD. […] Cell lysates were additionally analyzed by PARP and CASP8 immunoblot. β-actin serves as a loading control. […] The CMS1 cells lines RKO and HCT116 were treated with different concentrations of YM155 for 48 h and the expression of survivin was measured by qPCR. […]

[4] = tested on: solid tumours; details: phase I and II trials, solid non-CRC tumours; cited from earlier work
[5] = tested on: HCT116, RKO, HT55 and CaCo2 cells; assay: Global expression analysis by microarray after treatment; type: cell-based; details: 10 nM, 24 h; CMS1 versus CMS2 cell lines
From the text: as §1

[6] = tested on: CMS1 cell lines RKO and HCT116 and the CMS2 cell lines HT55 and CaCo2; assay: Apoptosis by flow cytometry (APC Annexin V and 7-AAD); type: cell-based; details: increasing concentrations; CMS1 (RKO, HCT116) versus CMS2 (HT55, CaCo2)
From the text: as §1

[7] = tested on: HCT116 and HT55; assay: Single knockout validation (SLC35F2, CCDC22, WASHC4, SNX17): drug-induced apoptosis by FACS; type: cell-based
From the text: as §1

[8] = tested on: PARP and CASP3; assay: Immunoblot of PARP and caspase cleavage; type: cell-based; details: cell lysates; CMS1 versus CMS2 cell lines
[9] = tested on: CMS1 cell lines HCT116 and RKO; assay: Long-term proliferation assay; type: cell-based; details: CMS1 (HCT116, RKO) versus CMS2

SMILES	sensitivity of CMS1 versus CMS2 cell lines (dose response curves, comparison of AUCs) [1]	differential effect between CMS1 and 2 (viability effect, AUC) [2]	protein levels of survivin [3]	expression of survivin (transcript) ([3]; qPCR, 48 h)	clinical benefit / efficacy [4]	tolerability / toxicity profile [4]	global expression [5]	induction of apoptosis (percentage of apoptotic cells) [6]	effect of candidate gene knockout on drug-induced apoptosis ([7]; HCT116 (CMS1))	effect of candidate gene knockout on drug sensitivity ([7]; HT55 (CMS2))	cleavage of PARP and CASP3 [8]	higher sensitivity of CMS1 cell lines [9]
CC1(C)CCC(c2ccc(Cl)cc2)=C(CN2CCN(c3ccc(C(=O)NS(=O)(=O)c4ccc(N[C@H](CCN5CCOCC5)CSc5ccccc5)c(S(=O)(=O)C(F)(F)F)c4)cc3)CC2)C1 [navitoclax]	does not show a significant difference between CMS1 and CMS2; also recorded: no difference in navitoclax sensitivity between CMS1 and CMS2 cell lines	–	–	–	–	–	–	–	–	–	–	–
COCCn1c2c([n+](Cc3cnccn3)c1C)C(=O)c1ccccc1C2=O [YM155, 11-(2-methoxyethyl)-2-methyl-4,9-dioxo-3-(pyrazin-2-ylmethyl)-4,9-dihydro-1H-naphtho(2,3-d)imidazolium bromide]	significantly higher vulnerability of CMS1 colorectal cancer; also recorded: significantly more sensitive	selective effect on CMS1 cancer; also recorded: strongest differential effect between CMS1 and 2	protein levels of survivin are only reduced at high concentrations	expression of survivin is only repressed in RKO cells	efficacy results are mixed; also recorded: failed to show clinical benefit; also recorded: no clinical benefit was observed	safe and good tolerability and favourable toxicity profile	global expression was dynamically reshaped upon treatment in CMS1 cell lines	Apoptosis can be measured at lower concentrations in CMS1 cell lines; also recorded: apoptosis was induced in CMS1 cell lines at significantly lower concentrations	All candidate genes lead to resistance to YM155 induced apoptosis at different concentrations in HCT116; also recorded: resistance against YM155 induced apoptosis in HCT116	only SLC35F2 knockout mediates resistance in HT55; also recorded: did not change YM155 sensitivity in HT55	detected at low concentrations in CMS1 but not CMS2 cell lines; also recorded: occurred at lower concentrations in RKO compared to CaCo2	approximately 100 fold
O=c1[nH]cc(F)c(=O)[nH]1 [5-fluorouracil]	do not show a different viability effect in CMS1 and CMS2 colorectal cancer; also recorded: no difference in response rates could be detected between CMS1 and CMS2	–	–	–	–	–	–	–	–	–	–	–
